According to publication PMC12586182 (Frontiers in Oncology, 2025):

How the values were obtained:
Experiment in all cases: Kinase panel profiling at 1 µmol/L (mobility shift assay, Carna)
Format in all cases: biochemical
Details in all cases: 1 µmol/L of BTK inhibitor
EPHB2 = target: T1, EPHB2 (Homo sapiens, UniProt P29323)
T1 construct: purchased Carna Biosciences
T1 sequence (P29323 19-1055): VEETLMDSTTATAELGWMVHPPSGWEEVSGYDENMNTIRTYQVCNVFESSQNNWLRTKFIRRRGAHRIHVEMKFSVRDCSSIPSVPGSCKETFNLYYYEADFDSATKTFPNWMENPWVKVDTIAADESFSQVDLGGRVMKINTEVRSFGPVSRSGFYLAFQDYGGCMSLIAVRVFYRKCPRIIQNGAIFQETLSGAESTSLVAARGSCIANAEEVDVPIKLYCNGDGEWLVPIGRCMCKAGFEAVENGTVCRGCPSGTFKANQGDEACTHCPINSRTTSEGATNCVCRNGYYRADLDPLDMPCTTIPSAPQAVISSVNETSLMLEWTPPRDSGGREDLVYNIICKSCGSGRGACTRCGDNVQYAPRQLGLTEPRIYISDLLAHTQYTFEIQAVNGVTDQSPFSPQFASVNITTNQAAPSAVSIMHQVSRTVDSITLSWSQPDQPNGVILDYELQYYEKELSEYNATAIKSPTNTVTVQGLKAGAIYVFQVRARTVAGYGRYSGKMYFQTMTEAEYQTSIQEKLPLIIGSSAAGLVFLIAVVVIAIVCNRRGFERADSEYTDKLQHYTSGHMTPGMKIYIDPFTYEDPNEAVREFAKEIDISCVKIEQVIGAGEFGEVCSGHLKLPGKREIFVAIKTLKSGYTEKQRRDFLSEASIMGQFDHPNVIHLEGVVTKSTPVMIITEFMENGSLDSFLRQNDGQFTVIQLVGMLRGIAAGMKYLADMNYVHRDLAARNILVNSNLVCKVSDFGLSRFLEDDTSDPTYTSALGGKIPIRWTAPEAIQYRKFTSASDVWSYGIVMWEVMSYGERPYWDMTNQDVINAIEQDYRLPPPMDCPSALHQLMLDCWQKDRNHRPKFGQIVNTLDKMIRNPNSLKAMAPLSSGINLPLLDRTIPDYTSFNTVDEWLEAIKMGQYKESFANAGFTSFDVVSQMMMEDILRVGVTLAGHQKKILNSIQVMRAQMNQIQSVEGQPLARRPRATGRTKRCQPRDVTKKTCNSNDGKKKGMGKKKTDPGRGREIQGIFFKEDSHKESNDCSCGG

JAK1 = target: T2, JAK1 (Homo sapiens, UniProt P23458)
T2 construct: purchased Carna Biosciences
T2 sequence (P23458 whole entry): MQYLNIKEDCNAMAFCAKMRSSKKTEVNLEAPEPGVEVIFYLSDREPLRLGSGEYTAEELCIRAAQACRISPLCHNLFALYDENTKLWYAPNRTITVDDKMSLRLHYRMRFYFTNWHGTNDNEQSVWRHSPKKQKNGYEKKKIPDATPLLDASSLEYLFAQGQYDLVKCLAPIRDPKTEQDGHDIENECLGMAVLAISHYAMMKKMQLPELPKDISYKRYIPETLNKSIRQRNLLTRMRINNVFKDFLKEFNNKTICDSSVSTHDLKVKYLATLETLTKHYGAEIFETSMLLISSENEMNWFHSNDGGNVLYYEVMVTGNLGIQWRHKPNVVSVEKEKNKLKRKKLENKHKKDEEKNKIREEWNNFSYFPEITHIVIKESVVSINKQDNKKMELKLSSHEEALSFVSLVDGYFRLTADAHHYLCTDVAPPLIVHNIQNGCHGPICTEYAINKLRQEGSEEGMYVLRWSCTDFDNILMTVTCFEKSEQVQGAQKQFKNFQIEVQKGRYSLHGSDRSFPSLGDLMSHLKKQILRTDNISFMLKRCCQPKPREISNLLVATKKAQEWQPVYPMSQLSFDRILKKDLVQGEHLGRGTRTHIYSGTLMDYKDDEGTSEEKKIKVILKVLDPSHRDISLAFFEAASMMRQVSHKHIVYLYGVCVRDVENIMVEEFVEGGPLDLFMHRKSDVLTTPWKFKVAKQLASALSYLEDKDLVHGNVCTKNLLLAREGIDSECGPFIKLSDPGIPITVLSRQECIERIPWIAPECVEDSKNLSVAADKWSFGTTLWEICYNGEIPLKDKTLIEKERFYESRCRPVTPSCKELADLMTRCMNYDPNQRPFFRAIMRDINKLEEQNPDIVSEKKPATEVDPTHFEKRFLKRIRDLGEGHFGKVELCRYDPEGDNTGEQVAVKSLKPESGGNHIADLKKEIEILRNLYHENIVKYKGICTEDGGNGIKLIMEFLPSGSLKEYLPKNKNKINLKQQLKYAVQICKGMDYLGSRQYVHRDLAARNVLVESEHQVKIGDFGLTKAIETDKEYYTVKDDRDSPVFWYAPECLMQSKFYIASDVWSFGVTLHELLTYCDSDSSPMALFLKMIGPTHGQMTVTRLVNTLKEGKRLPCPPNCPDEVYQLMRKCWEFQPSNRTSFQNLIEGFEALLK

Haspin = target: T3, Haspin (Homo sapiens, UniProt Q8TF76)
T3 construct: purchased Carna Biosciences
T3 sequence (Q8TF76 1-798): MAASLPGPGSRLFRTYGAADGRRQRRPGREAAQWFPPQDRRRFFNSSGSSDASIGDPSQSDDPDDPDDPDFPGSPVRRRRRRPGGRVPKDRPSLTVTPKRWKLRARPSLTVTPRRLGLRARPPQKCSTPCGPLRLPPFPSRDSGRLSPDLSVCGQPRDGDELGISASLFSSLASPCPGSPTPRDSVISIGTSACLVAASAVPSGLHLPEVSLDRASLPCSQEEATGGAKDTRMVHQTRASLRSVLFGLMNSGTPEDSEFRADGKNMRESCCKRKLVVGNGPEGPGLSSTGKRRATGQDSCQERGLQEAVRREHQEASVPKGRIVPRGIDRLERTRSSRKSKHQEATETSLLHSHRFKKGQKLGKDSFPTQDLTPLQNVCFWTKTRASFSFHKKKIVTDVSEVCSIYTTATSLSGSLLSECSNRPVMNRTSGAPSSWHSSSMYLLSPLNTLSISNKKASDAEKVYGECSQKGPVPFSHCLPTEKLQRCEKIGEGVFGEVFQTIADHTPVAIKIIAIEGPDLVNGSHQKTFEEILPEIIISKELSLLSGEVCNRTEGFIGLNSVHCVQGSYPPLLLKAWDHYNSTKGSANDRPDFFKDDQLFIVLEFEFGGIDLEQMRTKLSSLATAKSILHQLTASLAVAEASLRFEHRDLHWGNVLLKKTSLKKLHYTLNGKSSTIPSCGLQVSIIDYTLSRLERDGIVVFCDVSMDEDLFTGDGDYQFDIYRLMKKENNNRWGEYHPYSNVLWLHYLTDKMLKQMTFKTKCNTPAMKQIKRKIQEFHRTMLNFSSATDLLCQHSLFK

PKCε = target: T4, PKCε (Homo sapiens, UniProt Q02156)
T4 construct: purchased Carna Biosciences
T4 sequence (Q02156 1-737): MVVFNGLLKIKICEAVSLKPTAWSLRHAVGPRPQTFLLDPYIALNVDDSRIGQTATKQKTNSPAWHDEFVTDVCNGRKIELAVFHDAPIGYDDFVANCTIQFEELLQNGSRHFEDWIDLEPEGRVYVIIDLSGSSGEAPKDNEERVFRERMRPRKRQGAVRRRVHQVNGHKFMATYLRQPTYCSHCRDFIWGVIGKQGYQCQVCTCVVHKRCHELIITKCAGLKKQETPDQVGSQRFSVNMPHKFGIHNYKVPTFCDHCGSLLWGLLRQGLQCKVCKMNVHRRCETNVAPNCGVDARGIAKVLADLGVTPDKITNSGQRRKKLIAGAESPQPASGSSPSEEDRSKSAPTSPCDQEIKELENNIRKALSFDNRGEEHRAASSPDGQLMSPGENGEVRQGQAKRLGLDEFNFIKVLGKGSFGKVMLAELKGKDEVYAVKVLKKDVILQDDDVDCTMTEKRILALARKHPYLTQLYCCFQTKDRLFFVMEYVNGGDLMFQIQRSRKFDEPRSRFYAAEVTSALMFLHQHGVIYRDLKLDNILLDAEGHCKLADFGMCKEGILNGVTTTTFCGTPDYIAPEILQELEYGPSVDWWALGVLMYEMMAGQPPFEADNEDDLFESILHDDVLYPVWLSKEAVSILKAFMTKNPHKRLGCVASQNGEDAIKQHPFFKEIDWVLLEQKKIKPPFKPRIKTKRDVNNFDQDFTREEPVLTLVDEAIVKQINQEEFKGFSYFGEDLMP

PLK2 = target: T5, PLK2 (Homo sapiens, UniProt Q9NYY3)
T5 construct: purchased Carna Biosciences
T5 sequence (Q9NYY3 whole entry): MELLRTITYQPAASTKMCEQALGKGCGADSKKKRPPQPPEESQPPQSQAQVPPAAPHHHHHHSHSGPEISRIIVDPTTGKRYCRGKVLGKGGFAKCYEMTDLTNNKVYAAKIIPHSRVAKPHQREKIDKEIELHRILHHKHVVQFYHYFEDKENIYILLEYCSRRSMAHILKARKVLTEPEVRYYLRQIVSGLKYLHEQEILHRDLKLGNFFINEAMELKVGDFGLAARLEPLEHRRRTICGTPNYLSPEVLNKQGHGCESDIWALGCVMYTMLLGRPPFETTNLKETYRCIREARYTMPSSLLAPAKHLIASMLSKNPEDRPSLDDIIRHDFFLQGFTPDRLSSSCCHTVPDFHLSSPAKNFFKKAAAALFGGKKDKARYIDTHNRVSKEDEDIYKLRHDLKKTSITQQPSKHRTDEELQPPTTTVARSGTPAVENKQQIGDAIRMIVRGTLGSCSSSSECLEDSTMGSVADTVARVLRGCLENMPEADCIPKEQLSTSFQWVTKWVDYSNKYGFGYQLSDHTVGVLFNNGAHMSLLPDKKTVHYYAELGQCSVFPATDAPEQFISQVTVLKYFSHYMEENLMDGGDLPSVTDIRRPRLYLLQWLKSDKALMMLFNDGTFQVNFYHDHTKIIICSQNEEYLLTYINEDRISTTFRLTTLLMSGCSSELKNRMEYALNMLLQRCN

Compound	Percentage inhibition of kinase enzyme activity (EPHB2) [%]	Percentage inhibition of kinase enzyme activity (JAK1) [%]	Percentage inhibition of kinase enzyme activity (Haspin) [%]	Percentage inhibition of kinase enzyme activity (PKCε) [%]	Percentage inhibition of kinase enzyme activity (PLK2) [%]
O=C(c1ccc(Oc2ccccc2)cc1Cl)c1c[nH]c2ncnc(N[C@@H]3CC[C@@H](CO)OC3)c12 [nemtabrutinib]	48.93	32.55	-1.40	12.58	3.06
CC#CC(=O)N1CCC[C@H]1c1nc(-c2ccc(C(=O)Nc3ccccn3)cc2)c2c(N)nccn12 [acalabrutinib]	-0.11	-12.91	5.31	-8.62	2.47
COc1ccc(F)cc1C(=O)NCc1ccc(-c2nn([C@@H](C)C(F)(F)F)c(N)c2C(N)=O)cc1 [pirtobrutinib]	6.14	-2.12	-3.18	18.12	2.89
C=CC(=O)N1CCC([C@@H]2CCNc3c(C(N)=O)c(-c4ccc(Oc5ccccc5)cc4)nn32)CC1 [zanubrutinib]	-1.32	-0.37	–	–	–
C=CC(=O)N1CCC[C@@H](n2nc(-c3ccc(Oc4ccccc4)cc3)c3c(N)ncnc32)C1 [ibrutinib]	27.83	-9.54	2.53	7.63	1.72
